The assay deals with human recombinant H-PGDS (Homo sapiens, UniProt O60760). The assay is described as follows: Fluorescence intensity h-PGDS TBA enzyme assay. The format is biochemical. The following applies: Examples up to 622 (and 3a, 3b).

In patent US7902373B2 (Pfizer Inc, priority 2006, dated 2011) one finds IC50 data, which are given here for 37 molecules.

The term pIC50 denotes −log10 of the IC50, conventionally taken in molar units.

pIC50: −log10 of the molar value.

Chain of human recombinant H-PGDS (O60760 whole entry): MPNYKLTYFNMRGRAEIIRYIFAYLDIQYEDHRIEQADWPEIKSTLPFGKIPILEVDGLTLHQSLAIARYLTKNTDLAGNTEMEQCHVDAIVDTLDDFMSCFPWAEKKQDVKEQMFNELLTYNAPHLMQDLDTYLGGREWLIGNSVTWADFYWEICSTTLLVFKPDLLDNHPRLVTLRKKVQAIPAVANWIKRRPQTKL

Take `COCc1cc(N2CCC(NC(=O)c3ccc(-c4cccc(F)c4)nc3)CC2)nc(-c2csc(C)n2)n1` [Example 73, 6-(3-Fluorophenyl)-N-{1-[6-(methoxymethyl)-2-(2-methyl-13-thiazol-4-yl)pyrimidin-4-yl]piperidin-4-yl}nicotinamide]: the pIC50 is 8.54.

As to `O=C(NC1CCN(Cc2nc3c(s2)CCCC3)CC1)c1ccc(-c2cccc(F)c2)nc1` [Example 340, 6-(3-Fluorophenyl)-N-[1-(4,5,6,7-tetrahydro-1,3-benzothiazol-2-ylmethyl)piperidin-4-yl]nicotinamide], the pIC50 is 8.93.

As to `O=C1COc2ccc(CN3CCC(NC(=O)c4ccc(-c5cccc(F)c5)nc4)CC3)cc2N1` [Example 497, 6-(3-Fluorophenyl)-N-{1-[(3-oxo-3,4-dihydro-2H-14-benzoxazin-6-yl)methyl]piperidin-4-yl}nicotinamide], the pIC50 is 8.97.

For the molecule `Cn1ccnc1-c1ccc(CN2CCC(NC(=O)c3ccc(-c4cccc(F)c4)nc3)CC2)cc1` [Example 376, 6-(3-Fluorophenyl)-N-{1-[4-(1-methyl-1H-imidazol-2-yl)benzyl]piperidin-4-yl}nicotinamide], the pIC50 is 9.06.

For `COc1ccccc1CN1CCC(NC(=O)c2ccc(-c3cccc(F)c3)nc2)CC1` [Example 231, 6-(3-Fluorophenyl)-N-[1-(2-methoxybenzyl)piperidin-4-yl]nicotinamide], the pIC50 was 9.26.

With `O=C(N[C@H]1CN(c2cnc3ccccc3n2)C[C@@H]1O)c1ccc(-c2cccc(F)c2)nc1` (relative stereo) [Example 613, trans-6-(3-Fluorophenyl)-N-[4-hydroxy-1-quinoxalin-2-ylpyrrolidin-3-yl]nicotinamide], the pIC50 was 8.45.

For `O=C(NC1CCN(c2nccc(-c3cccc(F)c3)n2)CC1)c1ccc(-c2cccc(F)c2)nc1` [Example 172, 6-(3-Fluorophenyl)-N-{1-[4-(3-fluorophenyl)pyrimidin-2-yl]piperidin-4-yl}nicotinamide], the pIC50 was 7.46.

Consider `O=C(NC1CCN(Cc2nccs2)CC1)c1ccc(-c2cccc(F)c2)nc1` [Example 216, 6-(3-Fluorophenyl)-N-[1-(1,3-thiazol-2-ylmethyl)piperidin-4-yl]nicotinamide], for which the pIC50 was 9.44.

In the case of `O=C(NC1CCN(c2ncc3ccc(F)cc3n2)CC1)c1ccc(-c2cccc(F)c2)nc1` [Example 174, 6-(3-Fluorophenyl)-N-[1-(7-fluoroquinazolin-2-yl)piperidin-4-yl]nicotinamide], the pIC50 was 8.05.

Consider `COc1ccc(-n2ccnc2CN2CCC(NC(=O)c3ccc(-c4cccc(F)c4)nc3)CC2)cc1` [Example 365, 6-(3-Fluorophenyl)-N-(1-{[1-(4-methoxyphenyl)-1H-imidazol-2-yl]methyl}piperidin-4-yl)nicotinamide], for which the pIC50 was 9.89.

`O=C(NC1CCN(Cc2c[nH]nc2-c2cccc(F)c2)CC1)c1ccc(-c2cccc(F)c2)nc1` [Example 439, 6-(3-Fluorophenyl)-N-(1-{[3-(3-fluorophenyl)-1H-pyrazol-4-yl]methyl}piperidin-4-yl)nicotinamide]: the pIC50 is 9.12.

With `O=C(NC1CCN(Cc2ccccc2OC(F)F)CC1)c1ccc(-c2cccc(F)c2)nc1` [Example 292, N-{1-[2-(Difluoromethoxy)benzyl]piperidin-4-yl}-6-(3-fluorophenyl)nicotinamide], the pIC50 is 9.33.

Turning to `CC(CCC#N)(CN1CCC(NC(=O)c2ccc(-c3cccc(F)c3)nc2)CC1)c1ccccc1` (stereo not shown) [Example 293, N-[1-(4-Cyano-2-methyl-2-phenylbutyl)piperidin-4-yl]-6-(3-fluorophenyl)nicotinamide], the pIC50 was 9.23.

`CC(C)(C)OC(=O)N1[C@@H]2CC[C@H]1CC(NC(=O)c1ccc(-c3cccc(F)c3)nc1)C2` (stereo partly drawn) [Example 522, tert-Butyl (1R,5S)-3-({[6-(3-fluorophenyl)pyridin-3-yl]carbonyl}amino)-8-azabicyclo[3.2.1]octane-8-carboxylate]: the pIC50 was 8.18.

Take `O=C(NC1CCN(c2cc(Nc3cc[nH]n3)ncn2)CC1)c1ccc(-c2cccc(F)c2)nc1` [Example 37, N-(1-(6-(1H-Pyrazol-3-ylamino)pyrimidin-4-yl)piperidin-4-yl)-6-(3-fluorophenyl)nicotinamide]: the pIC50 is 9.32.

Regarding `COc1cc(CN2CCC(NC(=O)c3ccc(-c4cccc(F)c4)nc3)CC2)ccc1OCC(F)F` [Example 405, N-{1-[(2,2-Difluoroethoxy)-3-methoxybenzyl]piperidin-4-yl}-6-(3-fluorophenyl)nicotinamide], the pIC50 is 9.32.

Take `CCOc1cc(CN2CCC(NC(=O)c3ccc(-c4cccc(F)c4)nc3)CC2)ccc1OC` [Example 249, N-[1-(3-Ethoxy-4-methoxybenzyl)piperidin-4-yl]-6-(3-fluorophenyl)nicotinamide]: the pIC50 was 8.93.

With `O=C(NC1CCN(C2CCC(O)(c3ccccc3)CC2)CC1)c1ccc(-c2cccc(F)c2)nc1` (stereo not shown) [Example 558, 6-(3-Fluorophenyl)-N-[1-(4-hydroxy-4-phenylcyclohexyl)piperidin-4-yl]nicotinamide], the pIC50 was 9.46.

`CCOC(=O)N1CCC(NC(=O)c2ccc(-c3cc(F)cc(F)c3)nc2)CC1` [Example 33, Ethyl 4-({[6-(3,5-difluorophenyl)pyridin-3-yl]carbonyl}amino)piperidine-1-carboxylate]: the pIC50 was 8.62.

`O=C(NC1CCN(Cc2cccn3cc(Br)nc23)CC1)c1ccc(-c2cccc(F)c2)nc1` [Example 343, N-{1-[(2-Bromoimidazo[1,2-a]pyridin-8-yl)methyl]piperidin-4-yl}-6-(3-fluorophenyl)nicotinamide]: the pIC50 is 8.72.

In the case of `CC(C)(C)OC(=O)N1CCC(NC(=O)c2ccc(-c3cccc(F)c3)nc2)CC1` [Example 598, tert-Butyl 4-({[6-(3-fluorophenyl)pyridin-3-yl]carbonyl}amino)piperidine-1-carboxylate], the pIC50 is 8.42.

For the molecule `CC(=O)n1cc(CN2CCC(NC(=O)c3ccc(-c4cccc(F)c4)nc3)CC2)c2ccccc21` [Example 243, N-{1-[(1-Acetyl-1H-indol-3-yl)methyl]piperidin-4-yl}-6-(3-fluorophenyl)nicotinamide], the pIC50 is 8.99.

Regarding `CN1CCC(NC(=O)c2ccc(-c3cccc(F)c3)nc2)CC1` [Example 27, 6-(3-Fluorophenyl)-N-(1-methylpiperidin-4-yl)nicotinamide], the pIC50 was 7.72.

Regarding `Cc1nc(N)c2nc(N3CCC(NC(=O)c4ccc(-c5cccc(F)c5)nc4)CC3)cnc2n1` [Example 176, N-[1-(4-Amino-2-methylpteridin-6-yl)piperidin-4-yl]-6-(3-fluorophenyl)nicotinamide], the pIC50 was 9.12.

For the molecule `CCn1cc(CN2CCC(NC(=O)c3ccc(-c4cccc(F)c4)nc3)CC2)cn1` [Example 185, N-{1-[(1-Ethyl-1H-pyrazol-4-yl)methyl]piperidin-4-yl}-6-(3-fluorophenyl)nicotinamide], the pIC50 is 7.96.

As to `COCCc1ncc(CN2CCC(NC(=O)c3ccc(-c4cccc(F)c4)nc3)CC2)cn1` [Example 440, 6-(3-Fluorophenyl)-N-(1-{[2-(2-methoxyethyl)pyrimidin-5-yl]methyl}piperidin-4-yl)nicotinamide], the pIC50 is 8.71.

As to `CC(C)c1ncc2c(n1)CCC(CN1CCC(NC(=O)c3ccc(-c4cccc(F)c4)nc3)CC1)C2` (stereo not shown) [Example 400, 6-(3-Fluorophenyl)-N-{1-[(2-isopropyl-5,6,7,8-tetrahydroquinazolin-6-yl)methyl]piperidin-4-yl}nicotinamide], the pIC50 was 8.98.

For the molecule `O=C(NC1CCN(Cc2csc(-c3ccccc3)n2)CC1)c1ccc(-c2cccc(F)c2)nc1` [Example 373, 6-(3-Fluorophenyl)-N-{1-[(2-phenyl-1,3-thiazol-4-yl)methyl]piperidin-4-yl}nicotinamide], the pIC50 is 8.63.

In the case of `O=C(NC1CCN(Cc2ccccn2)CC1)c1ccc(-c2ccccc2F)nc1` [Example 587, 6-(2-Fluorophenyl)-N-[1-(pyridin-2-ylmethyl)piperidin-4-yl]nicotinamide], the pIC50 was 8.92.

On to `CCC(c1ccc(OC)c(OC)c1)N1CCC(NC(=O)c2ccc(-c3cccc(F)c3)nc2)CC1` (stereo not shown) [Example 541, N-{1-[1-(3,4-Dimethoxyphenyl)propyl]piperidin-4-yl}-6-(3-fluorophenyl)nicotinamide], for which the negative-log IC50 (pIC50) was 9.02.

On to `CC[C@@H](C)c1nccnc1N1CCC(NC(=O)c2ccc(-c3cccc(F)c3)nc2)CC1` [Example 156, 6-(3-Fluorophenyl)-N-(1-{3-[(1R)-1-methylpropyl]pyrazin-2-yl}piperidin-4-yl)nicotinamide], for which the pIC50 was 8.50.

With `COc1ccc(CN2CCC(NC(=O)c3ccc(-c4cccc(F)c4)nc3)CC2)cc1OCC(F)F` [Example 425, N-{1-[3-(2,2-Difluoroethyoxy)-4-methoxybenzyl]piperidin-4-yl}-6-(3-fluorophenyl)nicotinamide], the pIC50 is 8.55.

In the case of `Cc1ncc(CN2CCC(NC(=O)c3ccc(-c4cccc(F)c4)nc3)CC2)s1` [Example 446, 6-(3-Fluorophenyl)-N-{1-[(2-methyl-1,3-thiazol-5-yl)methyl]piperidin-4-yl}nicotinamide], the pIC50 is 9.05.

Take `O=C(NC1CCN(c2nccc(NCc3ccccn3)n2)CC1)c1ccc(-c2cccc(F)c2)nc1` [Example 59, 6-(3-Fluorophenyl)-N-(1-{4-[(pyridin-2-ylmethyl)amino]pyrimidin-2-yl}piperidin-4-yl)nicotinamide]: the pIC50 was 9.09.

For `O=C(NC1CCN(c2ncc(Br)cn2)CC1)c1ccc(-c2cccc(F)c2)nc1` [Example 127, N-[1-(5-Bromopyrimidin-2-yl)piperidin-4-yl]-6-(3-fluorophenyl)nicotinamide], the negative-log IC50 (pIC50) is 8.40.

Turning to `O=C(NC1CCN(c2nnnn2-c2ccccc2F)CC1)c1ccc(-c2cccc(F)c2)nc1` [Example 94, 6-(3-Fluorophenyl)-N-{1-[1-(2-fluorophenyl)-1H-tetrazol-5-yl]piperidin-4-yl}nicotinamide], the pIC50 was 9.37.

As to `O=C(NC1CCN(c2ccc(C(=O)c3ccccn3)cn2)CC1)c1ccc(-c2cccc(F)c2)nc1` [Example 149, 6-(3-Fluorophenyl)-N-{1-[5-(pyridin-2-ylcarbonyl)pyridin-2-yl]piperidin-4-yl}nicotinamide], the pIC50 was 8.74.
